Test results: PMC7946679, “Selective cytotoxicity of epidithiodiketopiperazine DC1149B, produced by marine-derived Trichoderma lixii on the cancer cells adapted to glucose starvation” (Journal of Natural Medicines, 2019)
≈ marks a conversion by molar mass, not a printed value.

Key:
[1] = molecular target: mitochondrial Complex I (Bos taurus, UniProt P03887+P17694+P42026); experiment: biochemical; details: mitochondrial electron transport chain
[2] = molecular target: mitochondrial Complex IV (Bos taurus, UniProt P00396+P68530); experiment: Mito Check Complex Activity Assay Kit, complex IV; assay type: biochemical; details: mitochondrial electron transport chain
Text: (§1) Dulbecco’s Modified Eagle’s medium (DMEM), WST-8 colorimetric reagent, and KCN were purchased from Nacalai Tesque, Inc. (Kyoto, Japan). Fetal bovine serum (FBS) and Dialyzed FBS were purchased from Equitech-Bio Inc. (Kerrville, TX, USA) and Thermo Fisher Scientific Inc. (Waltham, MA, USA), respectively. Anti-Akt, Anti-phosphorylated Akt, anti-GRP78, and anti-β-actin antibodies were obtained from Cell Signaling Technology, Inc. (Danvers, MA, USA). Horseradish peroxidase (HRP)-linked anti-rabbit IgG antibody (GE Healthcare Life Sciences, Buckinghamshire, UK) was used as secondary antibody. Mito Check Complex Activity Assay Kit (Cayman Chemical, Ann Arbor, MI, USA) was used to evaluate the effect of compound 1 on the mitochondrial complex I–V. Oxygen consumption of cells was measured by Oxygen Consumption Rate (OCR) Assay Kit (Cayman Chemical, Ann Arbor, MI, USA). Rotenone, thenoyltrifluoroacetone (TTFA), carbonyl cyanide m-chlorophenylhydrazone (CCCP), antimycin A, and oligomycin A were obtained from Tokyo Chemical Industry Co., LTD. […]
(§2) Antimycin A is a known inhibitor of complex III in the mitochondrial electron transport chain [17]. […] We also evaluated the effect of compound 1 on the oxygen consumption of PANC-1 cells cultured in the Glucose Deficient Medium.

[3] = tested on: Akt and phosphorylated Akt; experiment: Western blotting, Akt signaling in PANC-1 cells; assay type: cell-based, human; details: PANC-1 in Glucose Deficient Medium, 0.02–0.3 µM, 12 h, western blot
Description: (§3) PANC-1 cells (3 × 10^5 cells/2 ml in 6-well plastic plate) were pre-incubated in the DMEM supplement with 10% FBS for 24 h. The medium was then replaced with either General Glucose or Glucose Deficient Medium. […] Subsequently, the cells were rinsed with ice-cold PBS and lysed in the lysis buffer [50 mM Tris–HCl (pH 8.0) containing 150 mM NaCl, 5 mM EDTA, 1% glycerol, 1% NP-40, 1% protease inhibitor cocktail, and 1% phosphatase inhibitor cocktail]. The cell lysate was analyzed by SDS-PAGE and transferred onto PVDF membranes (GE Healthcare Life Sciences Buckinghamshire, UK). The membranes were then incubated with appropriate primary antibodies followed by HRP-conjugated secondary antibodies, and the immunopositive bands were visualized using an ECL kit (GE Healthcare Life Sciences). The luminescent signals were analyzed using an Image Quant LAS4010 Scanner (GE Healthcare Life Sciences).

[4] = molecular target: mitochondrial Complex V (Bos taurus, UniProt P00829+P00847+P19483+P32876); experiment: Mito Check Complex Activity Assay Kit, complex V; assay type: biochemical; details: mitochondrial electron transport chain
Text: as §1, §2

[5] = tested on: human pancreatic carcinoma PANC-1 cells; experiment: Cytotoxicity (WST-8) against PANC-1 cells in Glucose Deficient or General Glucose Medium; assay type: cell-based; details: for IC50: Homo sapiens; for IC50 / IC50 Glucose (−): PANC-1 cells, 12 h with sample, WST-8; for S.I. (Selective index): IC50 General Glucose Medium versus IC50 Glucose Deficient Medium, PANC-1
Description: Human pancreatic carcinoma cell line PANC-1 was maintained in the DMEM supplemented with heat-inactivated 10% FBS and kanamycin (50 µg/ml) in a humidified atmosphere with 5% CO2 at 37 °C. To induce nutrient starvation, PANC-1 cells were cultured in the Glucose Deficient Medium [Basal Medium (25 mM HEPES buffer (pH 7.4) supplemented with 6.4 g/l NaCl, 700 mg/l NaHCO3, 400 mg/l KCl, 265 mg/l CaCl2·2H2O, 200 mg/l MgSO4·7H2O, 125 mg/l NaH2PO4, 0.1 mg/l Fe(NO3)·9H2O, 15 mg/l Phenol red, 10 mL/l MEM vitamin solution (X100) (GIBCO, Carlsbad, CA), 200 mmol/l L-glutamine solution (GIBCO, Carlsbad, CA), and 25 mg/l kanamycin) containing 10% dialyzed FBS]. The General Glucose Medium [Basal Medium supplemented with 10% FBS and […] glucose (final 25 mM)] was also used for control cells.
The bioassay was carried out according to a method described previously. Briefly, PANC-1 cells (1 × 10^4 cells/100 µl in 96 well plastic plate) were pre-incubated in the DMEM supplemented with 10% FBS for 24 h. The medium was then replaced with either the General Glucose Medium or Glucose Deficient Medium to induce cells adaption to the nutrient starvation. After 12-h incubation, the serially diluted samples were added, and the cells were incubated for an additional 12 h in a humidified atmosphere with 5% CO2 at 37 °C. The cell proliferation was detected using the WST-8 colorimetric reagent. The IC50 value was determined by linear interpolation from the growth inhibition curve. We assessed the selectivity of the cytotoxic activity (Selective Index, S.I.) based on the difference in the IC50 values obtained for experiments with General Glucose Media and Glucose Deficient Media.

[6] = tested on: rat adrenal pheochromocytoma cell line PC12; details: PC12 cells, cited from earlier work
[7] = tested on: PANC-1 cells; experiment: Oxygen consumption rate of PANC-1 cells (OCR Assay Kit); assay type: cell-based, human; details: PANC-1 cells in General Glucose Medium, phosphorescent probe, 180 min
Description: Oxygen consumption rate of PANC-1 cells was assayed using OCR Assay Kit (Cayman Chemical, Ann Arbor, MI, USA) as per the manufacturer’s instructions. Briefly, pre-cultured PANC-1 cells (8.0 × 10^4 cells) in the black, clear bottom 96-well plate (Corning Incorporated, NY, USA) were incubated with General Glucose Medium for 18 h at 37 °C. The cells were replenished with 140 µl of fresh medium, and the test compound was added. This was followed by adding the phosphorescent probe to measure the oxygen consumption. 100 µl of mineral oil was added in each well to restrict oxygen diffusion. The signals were measured by an Infinite M1000 microplate reader (Tecan Group Ltd., Mannedorf, Switzerland) using time-resolved mode at Ex 380 nm and Em 650 nm for 180 min with 1-min time interval. The linear regression was applied after subtracting the blank, and the oxygen consumption rate was indicated by the slope of each signal profile.

[8] = tested on: human cervix epithelioid carcinoma HeLa cells; details: cited from earlier work
[9] = molecular target: mitochondrial Complex II/III (Bos taurus, UniProt P00125+P00157+P13272); experiment: Mito Check Complex Activity Assay Kit, complex II/III; assay type: biochemical; details: mitochondrial electron transport chain
Text: as §1, §2

[10] = tested on: GRP78; experiment: Western blotting, induction of GRP78 in PANC-1 cells; assay type: cell-based, human; details: PANC-1 in Glucose Deficient Medium, lowest test concentration 0.02 µM, 12 h, western blot
Description: as §3

[11] = tested on: human leukemic Jurkat cell line; details: read-out: IC50 cytotoxicity Jurkat; cited from earlier work
[12] = molecular target: T1, mitochondrial Complex II (Bos taurus, UniProt P31039+P35720+Q3T189+Q95123); experiment: Mito Check Complex Activity Assay Kit, complex II; assay type: biochemical; details: mitochondrial electron transport chain
T1 construct: purchased Cayman Chemical
Text: as §1, §2

T1 sequence (P31039 44-665): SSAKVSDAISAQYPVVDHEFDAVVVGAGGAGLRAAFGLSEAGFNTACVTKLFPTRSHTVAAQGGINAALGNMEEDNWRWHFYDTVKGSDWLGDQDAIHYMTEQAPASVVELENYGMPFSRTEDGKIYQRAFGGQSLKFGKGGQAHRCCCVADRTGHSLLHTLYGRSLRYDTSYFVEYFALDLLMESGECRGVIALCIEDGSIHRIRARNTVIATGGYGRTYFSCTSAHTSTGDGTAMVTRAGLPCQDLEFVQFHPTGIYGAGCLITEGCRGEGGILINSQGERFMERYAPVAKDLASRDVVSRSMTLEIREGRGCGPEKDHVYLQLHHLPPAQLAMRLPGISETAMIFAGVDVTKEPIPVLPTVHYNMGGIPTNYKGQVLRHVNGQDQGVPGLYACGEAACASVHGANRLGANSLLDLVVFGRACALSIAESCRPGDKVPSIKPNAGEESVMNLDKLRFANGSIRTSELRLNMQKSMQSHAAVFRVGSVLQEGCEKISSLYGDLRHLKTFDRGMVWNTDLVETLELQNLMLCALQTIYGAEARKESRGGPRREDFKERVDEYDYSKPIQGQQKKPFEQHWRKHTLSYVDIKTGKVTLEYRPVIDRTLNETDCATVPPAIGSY
T1 sequence (Q3T189 29-280): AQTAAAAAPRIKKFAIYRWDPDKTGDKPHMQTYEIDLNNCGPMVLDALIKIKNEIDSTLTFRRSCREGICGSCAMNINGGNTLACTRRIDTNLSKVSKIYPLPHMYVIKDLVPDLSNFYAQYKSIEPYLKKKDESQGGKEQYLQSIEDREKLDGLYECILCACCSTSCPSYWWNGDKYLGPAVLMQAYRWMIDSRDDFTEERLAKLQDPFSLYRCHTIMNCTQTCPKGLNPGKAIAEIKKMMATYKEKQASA
T1 sequence (P35720 30-169): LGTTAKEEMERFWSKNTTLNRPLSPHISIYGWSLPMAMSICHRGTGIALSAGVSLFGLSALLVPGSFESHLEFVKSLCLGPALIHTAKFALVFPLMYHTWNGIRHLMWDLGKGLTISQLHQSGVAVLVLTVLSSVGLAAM
T1 sequence (Q95123 56-158): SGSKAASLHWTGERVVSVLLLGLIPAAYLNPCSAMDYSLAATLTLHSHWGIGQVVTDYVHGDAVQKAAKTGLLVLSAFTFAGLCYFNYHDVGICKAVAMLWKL

In the case of `COc1ccc(C2SSC34CC5(O)C(Cl)C=CC(O)C5ON3C(=O)C2NC4=O)c(O)c1OC` (stereo not drawn) [Compound 1, DC1149B], the IC50 [1] is reported as greater than 30 µM, the IC50 [2] is reported as greater than 30 µM and the “levels of Akt and phosphorylated Akt” value [3] is reported as “reduced the levels of Akt and phosphorylated Akt in the nutrient-starved cells in a dose-dependent manner”. The IC50 [4] was greater than 30 µM, the IC50 ([5]; General Glucose Medium) was 710 µM and the IC50 ([5]; Glucose Deficient Medium) was 0.02 µM. For the same molecule, the “IC50 cytotoxic activity PC12” value [6] was 21.9 µg/mL (≈ 42.4 µM), the IC50 ([6]; read-out: IC50 cytotoxic activity PC12) was 42.4 µM and the “oxygen consumption of PANC-1 cells” value [7] was “inhibited the oxygen consumption”. The “IC50 cytotoxic activity HeLa” value [8] was 50.1 µg/mL (≈ 96.9 µM), the IC50 ([8]; read-out: IC50 cytotoxic activity HeLa) was 97.1 µM and the IC50 [9] was greater than 30 µM. For the same molecule, the “expression of GRP78” value [10] was “decreased the expression of GRP78 in the nutrient-starved cells to the basal level”, the IC50 [11] was 5.1 µM and the IC50 [12] was 19 µM.
For `CCCCCC[C@H]1C(=O)O[C@H](C)[C@H](NC(=O)c2cccc(NC=O)c2O)C(=O)O[C@@H](C)[C@@H]1OC(=O)CC(C)C` [Antimycin A, reference compound], the IC50 ([5]; Glucose Deficient Medium) was 0.0003 µM, the “S.I. (Selective index)” value [5] was 960,000 and the “oxygen consumption of PANC-1 cells” value [7] was “inhibited the oxygen consumption”.
Work on `O=C(CC(=O)C(F)(F)F)c1cccs1` [thenoyltrifluoroacetone, reference compound] yielded an IC50 [12] of 65 µM.
For `COc1ccc2cc(NC(=O)C3=NO[C@H]4[C@H](O)C=C[C@@H](O)[C@@]4(O)C3)c(=O)oc2c1OC` [Compound 2, trichodermamide A], the IC50 ([5]; General Glucose Medium) was greater than 1000 µM, the IC50 ([5]; Glucose Deficient Medium) was 270 µM and the “S.I. (Selective index)” value [5] was greater than 3.7. For the same molecule, the “IC50 Glucose (−)” value ([5]; Glucose Deficient Medium) was “very weak”.
For `N#CC(C#N)=NNc1cccc(Cl)c1` [CCCP, carbonyl cyanide m-chlorophenylhydrazone], the “oxygen consumption of PANC-1 cells” value [7] was “showed the opposite effect to antimycin A”.
In the case of `COc1ccc2cc(NC(=O)C34CC5(O)C(C=CC(O)C5ON3)S4)c(=O)oc2c1OC` (stereo not drawn) [Compound 3, aspergillazine A], the IC50 ([5]; General Glucose Medium) is reported as greater than 1000 µM, the IC50 ([5]; Glucose Deficient Medium) is reported as greater than 1000 µM and the “IC50 Glucose (−)” value ([5]; Glucose Deficient Medium) is reported as “very weak”.
